Laboratory results from patent US7604978B2, “Inhibition of biofilm formation” (Sequoia Sciences, Inc., priority 2004, dated 2009).

How the values were obtained:
Type in all cases: cell-based
E. coli JM109 = test: Inhibition of air-liquid interface biofilm; details: added with inoculation, E. coli JM109 in LB 0.2% glucose
Protocol: (§1) Inhibition of biofilm formation by E. coli K12 [R1drd19], P. aeruginosa PAO1, and V harveyi BB120 by the addition of 10 μg/mL ursolic acid. For E. coli K12 [R1drd19], data were collected 16 hours after addition of ursolic acid to a 24 hour biofilm in LB medium; for P. aeruginosa PAO1, data were collected 18 hours after addition of ursolic acid with inoculation in LB medium plus 1% sodium citrate; and for V. harveyi BB120, data were collected 18 hours after addition of ursolic acid with inoculation in M9 medium. All biofilm mass readings at OD540 were normalized based on the reading of wild type without ursolic acid which was normalized to 1. One standard deviation is shown.
Example 1 was repeated, except ursolic acid was added with inoculation in E. coli JM109 grown in LB 0.2% glucose.

V. harveyi BB120 = test: Inhibition of biofilm formation (biofilm mass, OD540)
Protocol: as §1

P. aeruginosa PAO1 = test: as above
Protocol: as §1

E. coli K12 [R1drd19] = test: as above
Protocol: as §1

E. coli K12 genes = test: DNA microarray, genes repressed by ursolic acid
Protocol: To identify the genes controlled by ursolic acid, E. coli K12 was grown in LB medium overnight, diluted 1:100 in fresh LB supplemented with 0, 10, or 30 μg/mL ursolic acid. The same amount of ethanol was supplemented to eliminate solvent effects. The cultures were grown to an OD600 of 0.9. The cells were centrifuged in a microcentrifuge for 15 seconds at 20,000×g in mini bead beater tubes (Biospec, Bartlesville, Okla.) that were cooled to −80° C. before sampling. The cell pellets were flash frozen in a dry ice-ethanol bath and stored at −80° C. until RNA isolation.
To lyse the cells, 1.0 mL RLT buffer (Qiagen, Inc., Valencia, Calif.) and 0.2 mL 0.1 mm zirconia/silica beads (Biospec) were added to the frozen bead beater tubes containing the cell pellets. The tubes were closed tightly and beat for 30 seconds at the maximum speed in a mini bead beater (cat. no. 3110BX, Biospec). The total RNA was isolated by following the protocol of the RNeasy Mini Kit (Qiagen) including an on-column DNase digestion with RNase-free DNase I (Qiagen). OD260 was used to quantify the RNA yield. OD260/OD280 and 23S/16S rRNA were measured using a 2100 Bioanalyzer (Agilent Technologies, Palo Alto, Calif.) to check the purity and integrity of RNA (RNeasy Mini handbook, Qiagen).
The E. coli DNA microarrays were prepared as described previously by Wei, Y. et al (Journal of Bacteriology, 2001, 183 (2) p. 545-556). Each gene probe was synthesized by PCR and has the size of the full open reading frame (200-2000 nt). The double-strand PCR products were denatured in 50% dimethyl sulfoxide and spotted onto aminosilane slides (Full Moon Biosystems, Sunnyvale, Calif.) as probes to hybridize with the mRNA-derived cDNA samples. It has been shown that each array can detect 4228 of the 4290 E. coli ORFs. Each gene has two spots per slide.
Briefly, the total RNA from the E. coli K12 samples grown with and without ursolic acid was first converted into labeled cDNA. […] The Cy3-labeled sample without ursolic acid and the Cy5-labeled ursolic acid sample (with 10 or 30 μg/mL ursolic acid) were hybridized on the first slide. Similarly, the Cy5-labeled sample without ursolic acid and the Cy3-labeled ursolic acid sample were hybridized on the second slide. Since each gene has two spots on a slide, the two hybridizations generated eight data points for each gene (four points for the sample without ursolic acid and four points for the ursolic acid sample). The microarray experiments with dye-swapping were repeated for both concentrations of ursolic acid.
The DNA microarrays were incubated in prehybridization solution (3.5×SSC [1×SSC is 0.15 M NaCl plus 0.015 M sodium citrate] [Invitrogen], 0.1% sodium dodecyl sulfate [SDS] [Invitrogen], and 0.1% bovine serum albumin [Invitrogen]) at 45° C. for 20 min. The arrays were rinsed with double-distilled water and were spun dry by centrifugation. Labeled cDNA (6 μg) was concentrated to 10 μl of total volume and was mixed with 10 μl of 4×cDNA hybridization solution (Full Moon Biosystems) and 20 μl of formamide (EM Science, Gibbstown, N.J.). The hybridization mix was heated to 95° C. for 2 min and was added to the DNA microarrays; each array was covered with a coverslip (Corning, Big Flats, N.Y.) and was incubated overnight at 37° C. for hybridization. When the hybridization was finished, the coverslips were removed in 1×SSC-0.1% SDS at room temperature, and the arrays were washed once for 5 min in 1×SSC-0.1% SDS at 40° C., twice for 10 min in 0.1×SSC-0.1% SDS at 40° C., and twice for 1 min in 0.1×SSC at 40° C. The arrays were quickly rinsed by dipping in room-temperature double-distilled water and were then spun dry by centrifugation. The hybridized slides were scanned with the Generation III Array Scanner (Molecular Dynamics Corp.). Readings at 570 and 670 nm was used to quantify the probes labeled with Cy3 and Cy5 separately. The signal was quantified with Array Vision 4.0 or 6.0 software (Imaging Research, St. Catherines, Ontario, Canada). […]

C[C@H]1[C@H](C)CC[C@]2(C(=O)O)CC[C@]3(C)C(=CC[C@@H]4[C@@]5(C)CC[C@H](O)C(C)(C)[C@@H]5CC[C@]43C)[C@H]12 [ursolic acid]
air-liquid interface biofilm (E. coli JM109): inhibited air-liquid interface biofilm | formation of biofilms (V. harveyi BB120): reduces or inhibits the formation of biofilms | formation of biofilms (P. aeruginosa PAO1): reduces or inhibits the formation of biofilms | formation of biofilms (E. coli K12 [R1drd19]): reduces or inhibits the formation of biofilms | ER (expression ratio) gene arsC (E. coli K12 genes; 10 μg/mL ursolic acid): −1.5 | ER (expression ratio) gene b0309 (E. coli K12 genes; 10 μg/mL ursolic acid): −1.7 | ER (expression ratio) gene b0484 (E. coli K12 genes; 10 μg/mL ursolic acid): −1.5 | ER (expression ratio) gene b0485 (E. coli K12 genes; 10 μg/mL ursolic acid): −1.8 | ER (expression ratio) gene b0829 (E. coli K12 genes; 10 μg/mL ursolic acid): −1.5 | ER (expression ratio) gene b1729 (E. coli K12 genes; 10 μg/mL ursolic acid): −5.6 | ER (expression ratio) gene b2379 (E. coli K12 genes; 10 μg/mL ursolic acid): −1.5 | ER (expression ratio) gene b2789 (E. coli K12 genes; 10 μg/mL ursolic acid): −1.9 | ER (expression ratio) gene cspF (E. coli K12 genes; 10 μg/mL ursolic acid): −1.6 | ER (expression ratio) gene cspG (E. coli K12 genes; 10 μg/mL ursolic acid): −2.5 | ER (expression ratio) gene cysB (E. coli K12 genes; 10 μg/mL ursolic acid): −1.7 | ER (expression ratio) gene cysD (E. coli K12 genes; 10 μg/mL ursolic acid): −2.5 | ER (expression ratio) gene cysI (E. coli K12 genes; 10 μg/mL ursolic acid): −1.5 | ER (expression ratio) gene cysJ (E. coli K12 genes; 10 μg/mL ursolic acid): −3.6 | ER (expression ratio) gene cysK (E. coli K12 genes; 10 μg/mL ursolic acid): −3.6 | ER (expression ratio) gene frvR (E. coli K12 genes; 10 μg/mL ursolic acid): −5.4 | ER (expression ratio) gene gntU_1 (E. coli K12 genes; 10 μg/mL ursolic acid): −1.5 | ER (expression ratio) gene hdeA (E. coli K12 genes; 10 μg/mL ursolic acid): −1.7 | ER (expression ratio) gene hdeB (E. coli K12 genes; 10 μg/mL ursolic acid): −1.8 | ER (expression ratio) gene narH (E. coli K12 genes; 10 μg/mL ursolic acid): −1.6 | ER (expression ratio) gene pheM (E. coli K12 genes; 10 μg/mL ursolic acid): −1.6 | ER (expression ratio) gene pheP (E. coli K12 genes; 10 μg/mL ursolic acid): −1.5 | ER (expression ratio) gene rimL (E. coli K12 genes; 10 μg/mL ursolic acid): −1.5 | ER (expression ratio) gene rmf (E. coli K12 genes; 10 μg/mL ursolic acid): −1.5 | ER (expression ratio) gene rpml (E. coli K12 genes; 10 μg/mL ursolic acid): −1.6 | ER (expression ratio) gene slp (E. coli K12 genes; 10 μg/mL ursolic acid): −1.5 | ER (expression ratio) gene ugpB (E. coli K12 genes; 10 μg/mL ursolic acid): −1.4 | ER (expression ratio) gene ybhG (E. coli K12 genes; 10 μg/mL ursolic acid): −1.4 | ER (expression ratio) gene ybiK (E. coli K12 genes; 10 μg/mL ursolic acid): −2.4 | ER (expression ratio) gene yeeD (E. coli K12 genes; 10 μg/mL ursolic acid): −2.3 | ER (expression ratio) gene yeeE (E. coli K12 genes; 10 μg/mL ursolic acid): −13 | ER (expression ratio) gene yhaD (E. coli K12 genes; 10 μg/mL ursolic acid): −1.6 | ER (expression ratio) gene yhaF (E. coli K12 genes; 10 μg/mL ursolic acid): −1.5 | ER (expression ratio) gene yhaG (E. coli K12 genes; 10 μg/mL ursolic acid): −2 | ER (expression ratio) gene yhaU (E. coli K12 genes; 10 μg/mL ursolic acid): −1.9 | ER (expression ratio) gene yjeB (E. coli K12 genes; 10 μg/mL ursolic acid): −1.4 | ER (expression ratio) gene arsC (E. coli K12 genes; 30 μg/mL ursolic acid): 1.4 | ER (expression ratio) gene b0309 (E. coli K12 genes; 30 μg/mL ursolic acid): −1.3 | ER (expression ratio) gene b0484 (E. coli K12 genes; 30 μg/mL ursolic acid): −1.1 | ER (expression ratio) gene b0485 (E. coli K12 genes; 30 μg/mL ursolic acid): −1.3 | ER (expression ratio) gene b0829 (E. coli K12 genes; 30 μg/mL ursolic acid): −1.5 | ER (expression ratio) gene b1729 (E. coli K12 genes; 30 μg/mL ursolic acid): −2 | ER (expression ratio) gene b2379 (E. coli K12 genes; 30 μg/mL ursolic acid): 1 | ER (expression ratio) gene b2789 (E. coli K12 genes; 30 μg/mL ursolic acid): −2.5 | ER (expression ratio) gene cspF (E. coli K12 genes; 30 μg/mL ursolic acid): −1.1 | ER (expression ratio) gene cspG (E. coli K12 genes; 30 μg/mL ursolic acid): −1.7 | ER (expression ratio) gene cysB (E. coli K12 genes; 30 μg/mL ursolic acid): −1.4 | ER (expression ratio) gene cysD (E. coli K12 genes; 30 μg/mL ursolic acid): −2.5 | ER (expression ratio) gene cysI (E. coli K12 genes; 30 μg/mL ursolic acid): −1.7 | ER (expression ratio) gene cysJ (E. coli K12 genes; 30 μg/mL ursolic acid): −3.3 | ER (expression ratio) gene cysK (E. coli K12 genes; 30 μg/mL ursolic acid): −3.3 | ER (expression ratio) gene frvR (E. coli K12 genes; 30 μg/mL ursolic acid): −2 | ER (expression ratio) gene gntU_1 (E. coli K12 genes; 30 μg/mL ursolic acid): −1.4 | ER (expression ratio) gene hdeA (E. coli K12 genes; 30 μg/mL ursolic acid): −1.4 | ER (expression ratio) gene hdeB (E. coli K12 genes; 30 μg/mL ursolic acid): −1.4 | ER (expression ratio) gene narH (E. coli K12 genes; 30 μg/mL ursolic acid): −1.4 | ER (expression ratio) gene pheM (E. coli K12 genes; 30 μg/mL ursolic acid): 1 | ER (expression ratio) gene pheP (E. coli K12 genes; 30 μg/mL ursolic acid): −1.1 | ER (expression ratio) gene rimL (E. coli K12 genes; 30 μg/mL ursolic acid): 1 | ER (expression ratio) gene rmf (E. coli K12 genes; 30 μg/mL ursolic acid): 1 | ER (expression ratio) gene rpml (E. coli K12 genes; 30 μg/mL ursolic acid): 1 | ER (expression ratio) gene slp (E. coli K12 genes; 30 μg/mL ursolic acid): −1.6 | ER (expression ratio) gene ugpB (E. coli K12 genes; 30 μg/mL ursolic acid): −1.5 | ER (expression ratio) gene ybhG (E. coli K12 genes; 30 μg/mL ursolic acid): −1.4 | ER (expression ratio) gene ybiK (E. coli K12 genes; 30 μg/mL ursolic acid): -2.2 | ER (expression ratio) gene yeeD (E. coli K12 genes; 30 μg/mL ursolic acid): −1.4 | ER (expression ratio) gene yeeE (E. coli K12 genes; 30 μg/mL ursolic acid): −2 | ER (expression ratio) gene yhaD (E. coli K12 genes; 30 μg/mL ursolic acid): −2.6 | ER (expression ratio) gene yhaF (E. coli K12 genes; 30 μg/mL ursolic acid): −2.4 | ER (expression ratio) gene yhaG (E. coli K12 genes; 30 μg/mL ursolic acid): −2.2 | ER (expression ratio) gene yhaU (E. coli K12 genes; 30 μg/mL ursolic acid): −4.2 | ER (expression ratio) gene yjeB (E. coli K12 genes; 30 μg/mL ursolic acid): 1
